Where “and” joins values, the source holds several entries; their conditions need not be identical. Identical values can stand only once.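 In this assay, cells in 96-well plates receive the compound at five concentrations for 48 hours. Endpoints are linearly interpolated between the surrounding concentrations. GI50 is the concentration that inhibits growth by half. Definition used: TGI = concentration required for complete inhibition of growth.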
Columns and labels:
Experiment in all cases: NCI-60 cell line screen, 48 h
HT29 colon = tested on: HT29 colon
KM12 colon = tested on: KM12 colon
M14 melanoma = tested on: M14 melanoma
NCI-H460 lung = tested on: NCI-H460 lung
OVCAR-4 ovarian = tested on: OVCAR-4 ovarian
SF-268 CNS = tested on: SF-268 CNS
SF-539 CNS = tested on: SF-539 CNS
SK-MEL-28 melanoma = tested on: SK-MEL-28 melanoma
UACC-62 melanoma = tested on: UACC-62 melanoma
UO-31 renal = tested on: UO-31 renal

| SMILES | TGI (HT29 colon) | TGI (KM12 colon) | TGI (M14 melanoma) | TGI (NCI-H460 lung) | TGI (OVCAR-4 ovarian) | TGI (SF-268 CNS) | TGI (SF-539 CNS) | TGI (SK-MEL-28 melanoma) | TGI (UACC-62 melanoma) | TGI (UO-31 renal) | GI50 (HT29 colon) | GI50 (KM12 colon) | GI50 (M14 melanoma) | GI50 (NCI-H460 lung) | GI50 (OVCAR-4 ovarian) | GI50 (SF-268 CNS) | GI50 (SF-539 CNS) | GI50 (SK-MEL-28 melanoma) | GI50 (UACC-62 melanoma) | GI50 (UO-31 renal) |
| --- | --- | --- | --- | --- | --- | --- | --- | --- | --- | --- | --- | --- | --- | --- | --- | --- | --- | --- | --- | --- |
| C=C[C@@]1(C)CCC2(O)C(CCC3C2(C)CCC[C@@]3(C)COC(=O)CC(=O)OC)C1 (stereo partly drawn) | 33.2 µM | 32.6 µM | 32.7 µM | > 100 µM | 33.3 µM | 55.3 µM | 36.1 µM | 30.9 µM | 32.3 µM | > 100 µM |  |  |  |  |  |  |  |  |  |  |
| COC(=O)[C@H]1[C@H]2C[C@@H]3c4[nH]c5cc(OC)ccc5c4CCN3C[C@H]2C[C@@H](OC(=O)c2cc(OC)c(OC)c(OC)c2)[C@@H]1OC | 29.8 µM | 41.7 µM | 30.3 µM | 59.9 µM | 27.8 µM | > 100 µM | 23.8 µM |  | 36.9 µM | 43.5 µM |  |  |  |  |  |  |  |  |  |  |
| COc1ccc(C(C#N)NC23CC4CC(CC(C4)C2)C3)cc1OC (stereo not drawn) | > 100 µM | > 100 µM | > 100 µM | > 100 µM | > 100 µM | > 100 µM | > 100 µM | > 100 µM | > 100 µM | > 100 µM |  |  |  |  |  |  |  |  |  |  |
| Cc1csc(/C=N/NC(=O)c2nnn(-c3ccnc4c(C(F)(F)F)cccc34)c2C)c1 | 82.5 µM | > 100 µM | > 100 µM | > 100 µM | 37.4 µM | > 100 µM | > 100 µM | > 100 µM | > 100 µM | > 100 µM | 10.1 µM | > 100 µM | > 100 µM | > 100 µM | 5.2 µM | > 100 µM | > 100 µM | > 100 µM | 74.7 µM | > 100 µM |
| COc1cc(NS(C)(=O)=O)ccc1Nc1c2ccccc2nc2c(C)cccc12 | 8.98 µM and 2.09 µM | 2.42 µM and 3.74 µM | 13.9 µM and 11.1 µM | 1.1 µM and 1.08 µM | 9.74 µM and 16.7 µM | 13.6 µM and 14.2 µM | 0.699 µM and 0.584 µM | 7.68 µM and 13.7 µM | 2.97 µM and 4.19 µM | 5.28 µM and 2.81 µM | 0.443 µM and 0.372 µM | 0.416 µM and 0.558 µM | 0.198 µM and 0.129 µM | 0.0175 µM and 0.022 µM | 1.86 µM and 2.6 µM | 0.266 µM and 0.288 µM | 0.102 µM and 0.123 µM | 1.1 µM and 1.33 µM | 0.182 µM and 0.211 µM | 0.215 µM and 0.124 µM |
| O=C(CC(=O)C(=O)Nc1ccccc1)CC(c1ccccc1)c1c(O)c2ccccc2oc1=O (stereo not drawn) | > 100 µM | > 100 µM | > 100 µM | > 100 µM |  | > 100 µM | > 100 µM | > 100 µM | > 100 µM | > 100 µM |  |  |  |  |  |  |  |  |  |  |
| O=C(Cn1c(=O)c(-c2ccccc2)nc2ccccc21)c1ccc(Cl)cc1 | > 100 µM | > 100 µM | > 100 µM | > 100 µM | > 100 µM | > 100 µM |  | > 100 µM | > 100 µM | > 100 µM | 41.7 µM | 98.1 µM | > 100 µM | 75.6 µM | 33.4 µM | > 100 µM |  | 42.5 µM | > 100 µM | 80.8 µM |
| CC1(C)OC(=O)[C@@](C)([C@H](O)c2ccccc2)O1 | > 100 µM | > 100 µM | > 100 µM | > 100 µM | > 100 µM | > 100 µM | > 100 µM |  | > 100 µM | > 100 µM |  |  |  |  |  |  |  |  |  |  |
| O=C(/C=C/C12c3ccccc3C(c3ccccc31)C1C(=O)N(c3ccccc3)C(=O)C12)c1ccc(Cl)cc1 (stereo not drawn) | 7.88 µM | > 100 µM | 6.78 µM | 3.7 µM |  | > 100 µM | 3.79 µM | 5.11 µM | 4.58 µM | 2.47 µM | 1.86 µM | 2.18 µM | 2.14 µM | 1.64 µM |  | 4.56 µM | 1.69 µM | 1.98 µM | 1.66 µM | 1.12 µM |
| N#CCCN(CCC#N)C(=O)c1cccc(C(=O)N(CCC#N)CCC#N)c1 | 35.2 µM | > 100 µM | > 100 µM | > 64.8 µM | > 100 µM | > 100 µM | > 55.3 µM |  | > 61.2 µM | > 100 µM |  |  |  |  |  |  |  |  |  |  |
| COc1cc2c(c(OC)c1OC)C(=O)CC(c1cccc(NC(=O)c3ccc(Br)cc3)c1)O2 (stereo not drawn) | > 100 µM |  | 7.49 µM | > 100 µM | > 100 µM | > 100 µM | > 100 µM | > 100 µM | 4.09 µM | > 100 µM | 2.77 µM |  | 2.08 µM | 3.27 µM | 1.6 µM | 2.57 µM | 3.86 µM | 2.98 µM | 1.57 µM | 1.49 µM |
| O=S1CSCS1 (stereo not drawn) | > 100 µM | > 100 µM | > 100 µM |  | > 100 µM | > 100 µM | > 100 µM | > 100 µM | > 100 µM | > 100 µM |  |  |  |  |  |  |  |  |  |  |
| C/C=C(\C)c1cc(=O)c2c(C)cc3c(c2o1)C(=O)c1c(O)c(C2CC(C)(N(C)C)C(O)C(C)O2)cc(C2CC(N(C)C)C(O)C(C)O2)c1C3=O (stereo not drawn) | 1.72 µM and 6.46 µM | 2.42 µM and > 23 µM | 0.312 µM |  | 3.64 µM and 11.2 µM | 0.738 µM and 4.52 µM |  |  |  |  |  |  |  |  |  | 0.134 µM and 0.632 µM |  |  |  | 0.531 µM and 3.98 µM |
| O=C(O)C1CCc2nnc(-c3ccccc3)n21 (stereo not drawn) |  | > 100 µM | > 100 µM | > 100 µM | > 100 µM | > 100 µM | > 100 µM | > 100 µM | > 100 µM | > 100 µM |  |  |  |  |  |  |  |  |  |  |
| CN(C)c1ccc2c(c1)CN1C(=O)c3ccccc3C1=N2 | > 100 µM | > 100 µM | > 100 µM | > 100 µM | > 100 µM |  | > 100 µM | > 100 µM | > 100 µM | > 100 µM | > 100 µM | > 100 µM | > 100 µM | > 100 µM | > 100 µM |  | > 100 µM | > 100 µM | > 100 µM | > 100 µM |
| CC1(C)C(c2ccccc2)=NN(O)c2ccccc21 | > 100 µM | > 100 µM | > 100 µM | > 100 µM | > 100 µM | > 100 µM | > 100 µM | > 100 µM | > 100 µM |  |  |  |  |  |  |  |  |  |  |  |
| CCOC(=O)c1cc(/C=C/C(C)=C/C(=O)OC)oc1-c1ccccc1 | > 100 µM | > 100 µM | > 100 µM | > 100 µM | > 100 µM | > 100 µM | > 100 µM |  | > 100 µM | > 100 µM |  |  |  |  |  |  |  |  |  |  |
| CCOC(=O)C1=C(C)NC2SC(=O)/C(=C\c3ccccc3Cl)N2C1c1ccccc1 (stereo not drawn) | > 100 µM | > 100 µM | > 100 µM | > 100 µM |  | > 100 µM | > 100 µM | > 100 µM | > 100 µM | > 100 µM | > 100 µM | > 100 µM | > 100 µM | > 100 µM |  | > 100 µM | > 100 µM | > 100 µM | > 100 µM | > 100 µM |
| O=[N+]([O-])c1cc([N+](=O)[O-])c(Cl)c(Cl)c1Cl | 1.99 µM | 3.76 µM |  | 4.99 µM | 3.16 µM | 3.92 µM |  | 3.06 µM | 2.64 µM | 3.08 µM | 0.477 µM | 1.85 µM |  | 2.16 µM | 1.78 µM | 1.73 µM |  | 1.67 µM | 1.31 µM | 1.51 µM |
| CCC1=C(C)/C(=C/c2[nH]c(C(Br)Br)c(CC)c2C)N=C1C(Br)Br | > 100 µM | 80.4 µM | > 100 µM | > 100 µM |  | > 100 µM | > 100 µM | > 100 µM | > 100 µM | > 100 µM |  |  |  |  |  |  |  |  |  |  |
| C=CCC1C(=O)C(C(=O)OC)N2CCc3c([nH]c4ccccc34)C12 (stereo not drawn) | > 100 µM | > 100 µM | > 100 µM |  | > 100 µM | > 100 µM | > 100 µM | > 100 µM | > 100 µM | > 100 µM |  |  |  |  |  |  |  |  |  |  |
| Cc1cc(=O)oc2c(CN3CCCCC3)c(O)ccc12 | > 100 µM |  | > 100 µM | > 100 µM | > 100 µM | > 100 µM | > 100 µM | > 100 µM | > 100 µM |  |  |  |  |  |  |  |  |  |  |  |
| O=S(=O)(Nc1cc(Br)c(O)c2ccccc12)c1ccc(F)cc1 | > 100 µM | 21.7 µM | 6.12 µM | 38.7 µM |  | 12.1 µM | 5.48 µM | 5.39 µM | 3.88 µM | 11.6 µM | 18.2 µM | 6.27 µM | 2.42 µM | 18.3 µM |  | 3.2 µM | 2.33 µM | 2.46 µM | 1.92 µM | 2.15 µM |
| Cc1cc(N2CCN(C)CC2)nc(NCc2cc(Nc3ccnc4cc(Cl)ccc34)ccc2F)n1 | 3.38 µM | > 100 µM | 3.86 µM |  | 6.13 µM | 7.76 µM | 3.24 µM | 3.28 µM |  | 3.72 µM | 1.24 µM | 3.2 µM | 2 µM |  | 1.42 µM | 1.99 µM | 1.69 µM | 1.67 µM |  | 1.76 µM |
| COc1cc(=O)oc(/C=C/C=O)c1C | 40.7 µM | 38.2 µM | 33.8 µM |  | 32.5 µM | 28.2 µM | 34.2 µM | 26.6 µM | 32.8 µM | 39.4 µM |  |  |  |  |  |  |  |  |  |  |
| O=C(c1ccccc1)C(c1ccccc1)C1(O)C(=O)Nc2ccccc21 (stereo not drawn) | > 100 µM |  | > 100 µM | > 100 µM | > 100 µM | > 100 µM | > 100 µM | > 100 µM | > 100 µM | > 100 µM |  |  |  |  |  |  |  |  |  |  |

— PubChem BioAssay (NCI)
